Results published in the supplement of paper PMC10307832.

What was measured:
Test in all cases: relative viability (nuclei count vs DMSO), 5 days (fraction); higher = more cells survive
[1] = compound: C1=CC2=C(C=C(C(=C2N=C1)O)N=NC3=CC4=C(C=C3)C=C(C=C4)S(=O)(=O)O)S(=O)(=O)O
Outline: (§1)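 Cells of lung cancer lines were placed in 1536-well plates and kept overnight at 37 °C. Pinning then delivered five library-drug doses (not always all listed), spaced by √10, onto plates anchored with vehicle, and the cells were left 5 days without changing medium. One step fixed, permeabilised and stained them with Hoechst, and MetaXpress counted nuclei in 4× images. Viability, as a median over plates, is treated-well nuclei divided by vehicle-well nuclei, with acceptance only at control CV below 25% and at least one doubling.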

AT-7519 = compound: O=C(NC1CCNCC1)c1n[nH]cc1NC(=O)c1c(Cl)cccc1Cl [AT-7519]
Outline: as §1

[2] = compound: C1=CC2=C(C=C(C(=C2N=C1)O)N=NC3=CC4=C(C=C3)C=C(C=C4)S(=O)(=O)O)S(=O)(=O)O + CC(=O)Nc1cccc(-n2c(=O)n(C3CC3)c(=O)c3c(Nc4ccc(I)cc4F)n(C)c(=O)c(C)c32)c1 [Trametinib] (partner 0.02 µM)
Outline: (§2)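 A single step with final 0.05% Triton X-100, 1% formaldehyde and 1 ug/ml Hoechst fixed the cells and stained nuclei 5 days after treatment. Lung cancer cell lines in 1536-well plates had been treated by pin tool the day after seeding with one drug alone or a fixed anchor-drug dose plus five library-drug doses (not always all listed) in √10 steps, and nuclei were counted on 4× images. Relative viability is the ratio of nuclei in treated wells to nuclei in vehicle wells, taken as the median of duplicate plates.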

AT-7519 + Navitoclax = compound: O=C(NC1CCNCC1)c1n[nH]cc1NC(=O)c1c(Cl)cccc1Cl [AT-7519] + CC1(C)CCC(c2ccc(Cl)cc2)=C(CN2CCN(c3ccc(C(=O)NS(=O)(=O)c4ccc(N[C@H](CCN5CCOCC5)CSc5ccccc5)c(S(=O)(=O)C(F)(F)F)c4)cc3)CC2)C1 [Navitoclax] (partner 0.5 µM)
Outline: as §2

Cell Line	relative viability ([1]; 0.08 µM)	relative viability ([1]; 0.253 µM)	relative viability ([1]; 0.8 µM)	relative viability ([1]; 2.53 µM)	relative viability ([1]; 8 µM)	relative viability (AT-7519; 0.01 µM)	relative viability (AT-7519; 0.03162 µM)	relative viability (AT-7519; 0.3162 µM)	relative viability (AT-7519; 1 µM)	relative viability ([2]; first compound 0.08 µM)	relative viability ([2]; first compound 0.253 µM)	relative viability ([2]; first compound 0.8 µM)	relative viability ([2]; first compound 2.53 µM)	relative viability ([2]; first compound 8 µM)	relative viability (AT-7519 + Navitoclax; first compound 0.01 µM)	relative viability (AT-7519 + Navitoclax; first compound 0.03162 µM)	relative viability (AT-7519 + Navitoclax; first compound 0.3162 µM)	relative viability (AT-7519 + Navitoclax; first compound 1 µM)
NCI-H1975	1.01	0.948	0.989	1.01	0.924	1.04	0.849	0.879	0.442	0.382	0.332	0.381	0.292	0.585	1.01	1.02	0.87	0.236
NCI-H1944	1.03	0.901	0.944	0.955	0.835	0.909	0.898	0.921	0.87	0.415	0.385	0.416	0.474	0.366	0.988	1.06	1.14	0.982
LU99A	1.02	0.936	0.901	0.95	0.948	1.02	0.857	0.826	0.974	0.582	0.502	0.505	0.548	0.646	0.846	0.782	0.745	0.382
SW 1573	1.11	1.03	0.944	1.01	0.815	0.988	0.84	0.753	0.312	0.514	0.477	0.608	0.564	0.0865	0.921	0.873	0.704	0.224
NCI-H2347	1.06	0.941	0.974	1.02	0.98	1.05	0.958	1.01	0.762	0.316	0.303	0.279	0.262	0.316	0.741	0.675	0.745	0.59
NCI-H2009	1.02	0.987	1.03	1.01	0.922	1.06	0.969	1.02	0.78	0.316	0.3	0.294	0.288	0.24	1.19	1.19	1.19	0.96
HCC-15	1.14	1	1.03	0.97	0.963	1.03	0.911	0.897	0.754	0.427	0.387	0.428	0.377	0.365	0.632	0.639	0.647	0.351
HCC-44	1.02	0.959	0.952	1.05	1	0.992	0.99	1.05	1.05	1.04	1.01	1.09	1.04	0.797	1.01	0.86	0.997	0.958
COR-L23	1.09	1.04	1	1.05	0.946	1.12	0.865	0.936	0.424	0.669	0.604	0.609	0.556	0.611	1.24	1.15	0.774	0.138
HCC-78	1.03	0.957	0.894	1.03	0.95	0.999	0.93	1.06	1.05	0.804	0.724	0.813	0.712	0.675	0.743	0.664	0.901	0.685
NCI-H727	1.15	0.921	0.923	0.958	0.941	0.954	0.802	0.849	0.447	0.344	0.398	0.351	0.356	0.335	0.374	0.449	0.245	0.121
NCI-H2087	0.942	0.999	0.941	0.934	0.869	1.03	0.874	0.991	0.4	0.2	0.213	0.196	0.217	0.236	1.03	0.964	1.04	0.0625
BEN	0.976	0.933	0.895	0.986	0.777	0.917	0.876	1.15	0.887	1.1	1.1	0.948	1.07	1.05	0.0644	0.0591	0.069	0.0528
EKVX	0.973	0.918	0.905	1.01	0.864	0.948	0.911	0.939	1.03	0.346	0.305	0.37	0.341	0.332	0.772	0.881	0.923	0.876
LXF-289	1.09	0.958	1.01	1.04	0.955	1	0.938	1.01	1.02	0.718	0.682	0.638	0.679	0.62	0.984	1.07	1	0.917
NCI-H1650	0.893	0.93	0.875	0.993	0.773	0.985	1.03	0.88	0.328	0.672	0.547	0.512	0.682	0.433	1.32	1.21	1.2	0.291
NCI-H2085	1.1	0.997	0.946	1.04	1.03	1.01	1	1.01	1.01	0.538	0.512	0.557	0.582	0.433	1.18	1.21	0.967	0.658
